Laboratory results reported in patent US12589078B2, “Lipid nanoparticles for delivery of nucleic acids” (CureVac SE, priority 2019, dated 2026).
Where “and” joins values, the source holds several entries; their conditions need not be identical. Equal values may be shown once. Read-outs that look alike come from different tables or passages of the source.

Experiments:
[1] = system: rabies virus; assay type: in vivo, mice; settings: all animals, day 21 after prime
[2] = system: malaria [NANP]7 peptide or C-terminus peptides; assay: Malaria CSP mRNA vaccination: ELISA endpoint titers; assay type: in vivo, mice; settings: CSP mRNA i.m., day 35 post prime, Example 22
Text: The mRNA was further enzymatically capped using ScriptCap™ m7G Capping System (CellScript, Madison,WI., USA) according to the manufacturer's instructions and enzymatically polyadenylated using a commercial polyadenylation kit, resulting in SEQ ID NO:38.
The GN01-LNP formulations were applied on days 0 and 21 intramuscularly (i.m.; musculus tibialis) with doses of RNA, formulations, and control groups as shown in Table Ex-20. A negative control group received vaccinations with an irrelevant RNA, formulated in GN01-LNPs. Serum samples were taken at day 21 and day 35 for ELISA.
ELISA was performed using malaria [NANP]7 peptide or C-terminus peptides for coating. Coated plates were incubated using respective serum dilutions, and binding of specific antibodies to the respective malaria [NANP]7 or C-terminus peptide were detected using biotinylated isotype specific anti-mouse antibodies followed by streptavidin-HRP (horse radish peroxidase) with Amplex™ Red Reagent as substrate. Endpoint titers of antibodies (IgG1, IgG2a) directed against the malaria [NANP]7 or C-terminus peptide were measured by ELISA on day 21 and day 35 post prime. […]
ELISA was performed using malaria [NANP]7 peptide for coating. […] Endpoint titers of antibodies (total IgG or IgG as indicated in the respective Figures) directed against the malaria [NANP]7 peptide were measured by ELISA on day 35 post prime.

[3] = system: tumor antigen Trp2; assay: Trp2 mRNA vaccination i.d.: IgG1/IgG2 endpoint titers (ELISA); settings: C57/BL6 mice, day 0, 7, 14
[4] = system: tumor antigen Trp2; assay: Trp2 mRNA vaccination i.d.: T-cell response (TNFα+/IFNγ+ CD4+/CD8+); settings: C57/BL6 mice, day 0, 7, 14
[5] = Zeta potential by Laser Doppler Microelectrophoresis; assay type: physicochemical
[6] = Particle size and PDI by dynamic light scattering (Malvern Zetasizer Nano); assay type: physicochemical

With `CCCCCCCCC(CCCCCC)COC(=O)CCCC(=O)OCCC1CCN(CCSSCCN2CCC(CCOC(=O)CCCC(=O)OCC(CCCCCC)CCCCCCCC)CC2)CC1` (centres unmarked) [Lipid C2, O1-[2-[1-[2-[2-[4-[2-[5-(2-hexyldecoxy)-5-oxo-pentanoyl]oxyethyl]-1-piperidyl]ethyldisulfanyl]ethyl]-4-piperidyl]ethyl] 05-(2-hexyldecyl) pentanedioate] as the compound, how does the VNTs ([1]; single i.m. 5 μg RABV-G-mRNA) read?
Its VNTs is greater than 0.5 IU/ml.

With `Cc1c(C)c2c(c(C)c1OC(=O)CCC(=O)OCCC1CCN(CCSCCN3CCC(CCOC(=O)CCC(=O)Oc4c(C)c(C)c5c(c4C)CC[C@@](C)(CCC[C@H](C)CCC[C@H](C)CCCC(C)C)O5)CC3)CC1)CC[C@@](C)(CCC[C@H](C)CCC[C@H](C)CCCC(C)C)O2` [Lipid C26, VitE-C4DE-Piperidine-Thioether] as the compound, how does the “IgG1 endpoint titers ([NANP]7 peptide)” value [2] read?
Its value is “very strong humoral immune responses”.

What about the VNTs ([1]; single i.m. 1 μg RABV-G-mRNA) of the same compound?
Its VNTs is greater than 0.5 IU/ml.

With `CCN1CCC(CCOC(=O)C(CCSSCCC(NC(=O)CC(=O)Oc2c(C)c(C)c3c(c2C)CCC(C)(CCCC(C)CCCC(C)CCCC(C)C)O3)C(=O)OCCC2CCN(CC)CC2)NC(=O)CC(=O)Oc2c(C)c(C)c3c(c2C)CCC(C)(CCCC(C)CCCC(C)CCCC(C)C)O3)CC1` (centres unmarked) [Lipid C10, VitE-C4DE-CysPipSS] as the compound, how does the “IgG1 and IgG2 titers” value [3] read?
Its value is “stable IgG1 and IgG2 titers”.

And the T-cell responses [4]?
Its T-cell responses is “low T-cell responses”.

And the zeta potential [5]?
Its zeta potential is 36.00 mV and 26.00 mV.

And the PDI [6]?
The PDI was 0.50 and 0.34.

And the size [6]?
The size was 103 nm and 67 nm.
